According to patent US9556160B2, “Guanidine compound” (Astellas Pharma Inc., priority 2011, dated 2017):
Counter-ions that a name gives are not always drawn.

Legend:
[1] = system: VAP-1 enzyme (SSAO) activity in rat plasma; assay: Inhibitory effect on rat VAP-1 enzyme (SSAO) activity in rat plasma after oral administration; format: in vivo, Wistar male rats; conditions: rat plasma VAP-1 activity, oral 0.3 mg/kg; for Inhibition Ratio (%) 1 h: 1 h after administration; for Inhibition Ratio (%) 3 h: 3 h after administration; for Inhibition Ratio (%) 6 h: 6 h after administration; for Inhibition Ratio (%) 24 h: 24 h after administration; for Inhibition Ratio (%) 12 h: 12 h after administration
Method: Eight-week to twelve-week Wistar male rats were fasted for 20 hours, and orally administered with a test drug ([…]). Heparin blood collection from the tail vein was performed immediately before the administration, and at 1 h, 3 h, 6 h, 12 h, or 24 h after the administration. The resulting blood was subjected to centrifugation at 14000 rpm for 5 minutes to separate plasma, and the VAP-1 enzyme activity in the resulting plasma was measured by a radio-enzyme assay method.
For the radio-enzyme assay method, ^14C-benzylamine which is a synthetic substrate (10 μM) was reacted with the resulting plasma at 37° C., and the resulting metabolite was extracted with a mixture of toluene/ethyl acetate. The radioactivity was measured and taken as a VAP-1 enzyme activity in the plasma. The effect of the test drug was calculated from the inhibitory ratio (%) of the VAP-1 activity after the administration of the test drug relative to the VAP-1 activity in the plasma immediately before the administration.

rat VAP-1 enzyme (SSAO) = rat VAP-1 enzyme (SSAO) (Rattus norvegicus (Rat), UniProt O08590); assay: Inhibitory effect on rat VAP-1 enzyme (SSAO) activity, radiochemistry-enzymatic assay with 14C-benzylamine; format: biochemical; conditions: CHO-expressed rat VAP-1, 14C-benzylamine 1×10^−5 mol/L
Method: (§1) After homogenizing CHO (Chinese Hamster Ovary) cells stably expressing a rat VAP-1 enzyme (SSAO) in a 50 mM phosphate buffer containing 1% NP-40, an enzyme suspension was obtained by taking the supernatant obtained by centrifugation. The enzyme suspension was preincubated with the compound of the present invention in a 96-well microplate at room temperature for 30 minutes. Subsequently, the enzyme suspension was incubated with ^14C-benzylamine (a final concentration of 1×10^−5 mol/L) to a final volume of […] at 37° C. for 1 hour. The enzymatic reaction was stopped by the addition of 2 mol/L (50 μL) of citric acid. The oxidation products were extracted directly in a 200 μL toluene scintillator, and the radioactivity was measured with a scintillation spectrometer.

[2] = molecular target: human VAP-1 enzyme (SSAO) (Homo sapiens (Human), UniProt Q16853); assay: Inhibitory effect on human VAP-1 enzyme (SSAO) activity, radiochemistry-enzymatic assay with 14C-benzylamine; format: biochemical; conditions: CHO-expressed human VAP-1, 14C-benzylamine 1×10^−5 mol/L
Method: as §1, with “a human” for “a rat”, “[…]” for “(50 μL)”, “acid.” for “acid. The oxidation products were extracted directly in a 200 μL toluene scintillator, and the radioactivity was measured with a scintillation spectrometer.”

[3] = system: albuminuria in STZ-treated rats; assay: Effect on albuminuria in rats with diabetes mellitus (STZ); format: in vivo, SD rats; conditions: oral 0.3 mg/kg once daily, after 4 weeks; for amount of urinary albumin excretion: 24-hour urine
Method: Seven-to eight-week SD rats (having weights up to 200 to 250 g during fasting) were used and fasted for 20 hours, and then intraperitoneally administered with 60 mg/ml/kg of streptozotocin (STZ) prepared with a 2 mmol/l citric acid buffer (pH 4.5). At the same time, the control rats were injected with the same amount of a 2 mmol/l citric acid buffer (pH 4.5).
The test substance was given daily for 4 weeks after the treatment with STZ. After 4 weeks of the treatment with the test substance, 24-hour urine collection was performed using metabolic cages.

rat VAP-1 enzyme (SSAO), sequence (O08590 whole entry): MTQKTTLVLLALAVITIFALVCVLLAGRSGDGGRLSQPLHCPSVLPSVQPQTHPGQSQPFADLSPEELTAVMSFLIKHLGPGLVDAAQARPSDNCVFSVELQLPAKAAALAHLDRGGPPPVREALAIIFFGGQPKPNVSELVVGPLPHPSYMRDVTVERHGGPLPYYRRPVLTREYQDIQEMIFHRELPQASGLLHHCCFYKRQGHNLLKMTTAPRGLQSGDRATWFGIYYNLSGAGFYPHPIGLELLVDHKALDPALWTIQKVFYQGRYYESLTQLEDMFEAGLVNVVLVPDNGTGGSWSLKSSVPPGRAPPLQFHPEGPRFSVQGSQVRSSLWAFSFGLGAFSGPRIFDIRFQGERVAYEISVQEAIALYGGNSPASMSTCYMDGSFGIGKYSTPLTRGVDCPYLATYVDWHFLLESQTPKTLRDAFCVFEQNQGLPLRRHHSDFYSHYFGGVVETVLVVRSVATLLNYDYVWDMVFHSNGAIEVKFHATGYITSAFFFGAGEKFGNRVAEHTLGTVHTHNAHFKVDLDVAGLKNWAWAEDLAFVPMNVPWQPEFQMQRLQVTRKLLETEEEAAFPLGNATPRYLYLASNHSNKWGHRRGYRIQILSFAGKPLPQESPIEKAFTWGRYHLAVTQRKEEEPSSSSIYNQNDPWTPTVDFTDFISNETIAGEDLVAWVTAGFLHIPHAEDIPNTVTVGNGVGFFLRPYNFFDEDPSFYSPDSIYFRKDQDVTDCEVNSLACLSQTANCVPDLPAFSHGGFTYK
human VAP-1 enzyme (SSAO), sequence (Q16853 whole entry): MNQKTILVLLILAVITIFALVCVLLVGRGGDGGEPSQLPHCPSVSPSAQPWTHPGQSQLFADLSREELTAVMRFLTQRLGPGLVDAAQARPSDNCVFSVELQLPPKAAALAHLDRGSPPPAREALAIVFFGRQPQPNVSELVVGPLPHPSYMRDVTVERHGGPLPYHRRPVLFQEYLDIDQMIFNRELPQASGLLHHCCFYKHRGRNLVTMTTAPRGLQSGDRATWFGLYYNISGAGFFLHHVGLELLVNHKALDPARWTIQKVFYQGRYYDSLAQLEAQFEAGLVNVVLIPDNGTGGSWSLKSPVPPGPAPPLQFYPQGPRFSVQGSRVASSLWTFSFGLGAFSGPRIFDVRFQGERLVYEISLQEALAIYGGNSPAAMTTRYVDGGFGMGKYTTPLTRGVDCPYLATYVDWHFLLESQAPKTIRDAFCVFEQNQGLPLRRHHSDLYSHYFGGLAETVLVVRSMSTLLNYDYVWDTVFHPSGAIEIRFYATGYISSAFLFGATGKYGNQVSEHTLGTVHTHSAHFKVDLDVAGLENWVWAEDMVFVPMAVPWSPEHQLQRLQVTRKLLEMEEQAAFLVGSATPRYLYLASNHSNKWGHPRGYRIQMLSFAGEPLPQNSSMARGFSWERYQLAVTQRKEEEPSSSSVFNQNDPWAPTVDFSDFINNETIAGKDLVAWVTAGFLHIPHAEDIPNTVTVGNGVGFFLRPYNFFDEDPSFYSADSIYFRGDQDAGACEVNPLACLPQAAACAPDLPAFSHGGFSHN

SMILES	IC50 (rat VAP-1 enzyme (SSAO))	IC50 [2]	Inhibition Ratio (%) 1 h [1]	Inhibition Ratio (%) 3 h [1]	Inhibition Ratio (%) 6 h [1]	Inhibition Ratio (%) 24 h [1]	urinary albumin excretion relative to that of the control group [3]	amount of urinary albumin excretion [3]	Inhibition Ratio (%) 12 h [1]
CC(=O)N1CCC(COc2ncc(-c3cccc(COC(=O)NC(=N)N)c3F)cn2)CC1 [Example 11]	2.2 nM	5.2 nM	64%	70%	63%	12%	1.5 times	103 mg/gCr	
Cn1cc(OC2CN(c3cccc(COC(=O)NC(=N)N)c3F)C2)ccc1=O [Example 557]	1.6 nM	11 nM	53%	71%	56%	22%	2.3 times	105 mg/gCr	
Cc1cc(COC2CN(c3cccc(COC(=O)NC(=N)N)c3F)C2)cc(C)n1 [Example 555]	3.5 nM	20 nM	67%	69%	54%	27%			
N=C(N)NC(=O)OCc1cccc(-c2cnc(OCC3CCN(C(=O)C4CC4)CC3)nc2)c1F [Example 74]	1.8 nM	5.3 nM	79%	74%	81%	40%			
CC(=O)N1CCC(COc2ncc(-c3cccc(CNC(=O)NC(=N)N)c3F)cn2)CC1 [Example 105]	2.6 nM	14 nM	22%	38%	31%	6%			
N=C(N)NC(=O)OCc1cccc(-c2cnc(OCC3CCN(C(=O)c4cccnc4)CC3)nc2)c1F [Example 29]	1.9 nM	7.2 nM	46%	60%	58%	22%			
CC(=O)Nc1nc(CCc2cccc(CNC(=O)NC(=N)N)c2)cs1.Cl [Example 83]	1.9 nM	25 nM	34%	66%	86%				53%
CC1(O)CCN(c2ncc(N3CCN(c4cccc(COC(=O)NC(=N)N)c4F)CC3)cn2)CC1 [Example 110]	1.4 nM	32 nM	96%	96%	95%	75%			
N=C(N)NC(=O)OCc1cccc(-c2cnc(N3CC[C@H](F)C3)nc2)c1 [Example 178]	4.4 nM	33 nM	63%	73%	67%				80%
N=C(N)NC(=O)OCc1cccc(N2CCN(c3cnc(N4CC[C@@H](F)C4)nc3)CC2)c1F [Example 118]	1.7 nM	29 nM	87%	86%	88%	59%			
COCc1ccc(OC2CN(c3cccc(COC(=O)NC(=N)N)c3F)C2)cn1 [Example 553]	3 nM	20 nM	67%	57%	50%	40%			
N=C(N)NC(=O)OCc1cccc(N2CCC(c3ccncc3)CC2)c1F [Example 52]	1.7 nM	23 nM	90%	68%	52%				37%

Now from value to compound, other results behind:

IC50 (rat VAP-1 enzyme (SSAO))	IC50 [2]	SMILES	Inhibition Ratio (%) 1 h [1]	Inhibition Ratio (%) 3 h [1]	Inhibition Ratio (%) 6 h [1]	Inhibition Ratio (%) 24 h [1]	urinary albumin excretion relative to that of the control group [3]	amount of urinary albumin excretion [3]	Inhibition Ratio (%) 12 h [1]
0.9 nM	11 nM	COC1CN(c2ncc(N3CCN(c4cccc(COC(=O)NC(=N)N)c4F)CC3)cn2)C1 [Example 316, 2-fluoro-3-{4-[2-(3-methoxyazetidin-1-yl)pyrimidin-5-yl]piperazin-1-yl}benzyl carbamimidoylcarbamate trihydrochloride]	91%	99%	98%				91%
1.6 nM	9.6 nM	N=C(N)NC(=O)OCc1cccc(N2CC(C3CCN(C(=O)C4CC4)CC3)C2)c1F [Example 561]	91%	92%	85%	64%			
0.95 nM	19 nM	N=C(N)NC(=O)OCc1cccc(N2CCN(C(=O)CC3CCOCC3)CC2)c1F [Example 273]	55%	74%	54%	19%			
1.3 nM	2.7 nM	N=C(N)NC(=O)OCc1cccc(N2CCN(c3ccn4ccnc4c3)CC2)c1F [Example 556]	55%	70%	46%	19%			
1.4 nM	9 nM	CCC(=O)N1CCC(C2CN(c3cccc(COC(=O)NC(=N)N)c3F)C2)CC1 [Example 560]	89%	91%	84%	58%			
1.7 nM	19 nM	Cc1ccc(N2CCN(c3cccc(COC(=O)NC(=N)N)c3F)CC2)cn1 [Example 300]	92%	93%	88%	85%			
6.6 nM	34 nM	N=C(N)NC(=O)OCc1cccc(N2CCN(c3cccnc3)C(=O)C2)c1F [Example 304]	52%	56%	56%	18%			
1 nM	25 nM	CC(=O)N1CCC(OC2CCN(c3cccc(COC(=O)NC(=N)N)c3F)CC2)CC1 [Example 220]	80%	80%	84%	27%			
0.81 nM	4.3 nM	CC(=O)N1CCC(C2CN(c3cccc(COC(=O)NC(=N)N)c3F)C2)CC1 [Example 559]	86%	89%	82%	59%			
2.1 nM	49 nM	CCS(=O)(=O)N1CCN(c2cccc(COC(=O)NC(=N)N)c2F)CC1 [Example 157]	95%	91%	80%	39%			
